Laboratory results as given in patent publication US6455533B1, “Pharmaceutical compositions for oral administration, comprising an active substance and a cyclodextrin” (UCB, S.A., priority 1997, dated 2002).
Counter-ions that a name gives are not always drawn.

Experiments:
[1] = pH 3.4
Protocol: Two solutions A and B were prepared. […] These two solutions were stirred at room temperature until thermodynamic equilibrium was reached.

[2] = Competition for the complexation with colored indicators; assay type: physicochemical; conditions: complex with β-cyclodextrin
Excerpt: In this case, the cetirizine comes into competition with the colored indicator for the formation of an inclusion complex. The changes in the visible-range spectrum thus make it possible to determine whether or not cetirizine forms an inclusion complex with cyclodextrin. Two acid-base indicators were used; crystal violet and methyl orange. In the case of the acid-base indicators, the changes in the absorption spectrum due to complexation with a cyclodextrin are often large given that the complexation brings about a change in the pK of the indicator. If the pH of the solution is close to the pK, the addition of a cyclodextrin to an acid-base indicator solution brings about ionization or deionization of the indicator, which is reflected by a change in the color of the solution. Consequently, the absorption maximum in the visible spectrum is displaced as a function of the degree of complexation. […] (J.

| increase of solubility (factor) [1] | association constant (average value) ([2]; competition with crystal violet) | association constant (average value) ([2]; competition with methyl orange) | Structure (SMILES) |
| --- | --- | --- | --- |
| at least 30 | – | – | OC[C@H]1O[C@@H]2O[C@H]3[C@H](O)[C@@H](O)[C@@H](O[C@H]4[C@H](O)[C@@H](O)[C@@H](O[C@H]5[C@H](O)[C@@H](O)[C@@H](O[C@H]6[C@H](O)[C@@H](O)[C@@H](O[C@H]7[C@H](O)[C@@H](O)[C@@H](O[C@H]8[C@H](O)[C@@H](O)[C@@H](O[C@H]1[C@H](O)[C@H]2O)O[C@@H]8CO)O[C@@H]7CO)O[C@@H]6CO)O[C@@H]5CO)O[C@@H]4CO)O[C@@H]3CO [β-cyclodextrin] |
| – | 3292 mol⁻¹ | 3587 mol⁻¹ | O=C(O)COCCN1CCN(C(c2ccccc2)c2ccc(Cl)cc2)CC1 (stereo not drawn) [cetirizine dihydrochloride, 2-[2-[4-[(4-chlorophenyl)phenylmethyl]-1-piperazinyl]ethoxy]acetic acid] |
